Source: PubChem BioAssay (NCI)
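Five concentrations, 48 hours, 96-well plates. GI50 = concentration required for 50% inhibition of growth. Definition used: TGI = concentration required for complete inhibition of growth.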

Tests used:
Experiment in all cases: inhibition of tumour cell growth, NCI panel, 48 h
RPMI-8226 leukemia = tested on: RPMI-8226 leukemia
HCT-116 colon = tested on: HCT-116 colon
NCI-H23 lung = tested on: NCI-H23 lung
MOLT-4 leukemia = tested on: MOLT-4 leukemia
PC-3 prostate = tested on: PC-3 prostate
786-0 renal = tested on: 786-0 renal
A498 renal = tested on: A498 renal
HL-60(TB) leukemia = tested on: HL-60(TB) leukemia
MCF7 breast = tested on: MCF7 breast
HOP-92 NSCLC = tested on: HOP-92 NSCLC
SR leukemia = tested on: SR leukemia
SNB-75 CNS = tested on: SNB-75 CNS
NCI-H460 lung = tested on: NCI-H460 lung
COLO 205 colon = tested on: COLO 205 colon
CCRF-CEM leukemia = tested on: CCRF-CEM leukemia
HT29 colon = tested on: HT29 colon
NCI-H522 lung = tested on: NCI-H522 lung
SNB-19 CNS = tested on: SNB-19 CNS
HOP-62 NSCLC = tested on: HOP-62 NSCLC
NCI/ADR-RES ovarian = tested on: NCI/ADR-RES ovarian
SF-295 CNS = tested on: SF-295 CNS
HCT-15 colon = tested on: HCT-15 colon
HS 578T breast = tested on: HS 578T breast
OVCAR-4 ovarian = tested on: OVCAR-4 ovarian
SK-MEL-28 melanoma = tested on: SK-MEL-28 melanoma
CAKI-1 renal = tested on: CAKI-1 renal
M14 melanoma = tested on: M14 melanoma

**Q.** What does the source list for `CC(=O)Nc1c(Br)cc2c(c1Br)Cc1cc(Br)ccc1-2`?
**A.** GI50 (RPMI-8226 leukemia): 50.5 µM; TGI (RPMI-8226 leukemia): > 100 µM; GI50 (HCT-116 colon): 2760 nM; TGI (HCT-116 colon): 10.9 µM; GI50 (NCI-H23 lung): 3.64 µM; TGI (NCI-H23 lung): 16 µM; GI50 (MOLT-4 leukemia): > 100 µM; TGI (MOLT-4 leukemia): > 100 µM; GI50 (PC-3 prostate): 10.3 µM; TGI (PC-3 prostate): 26.2 µM; GI50 (786-0 renal): 1830 nM; TGI (786-0 renal): 3.43 µM; GI50 (A498 renal): 3.87 µM; TGI (A498 renal): 14.9 µM; GI50 (HL-60(TB) leukemia): 50.5 µM; TGI (HL-60(TB) leukemia): > 100 µM; GI50 (MCF7 breast): 9.29 µM; TGI (MCF7 breast): 96.1 µM; GI50 (HOP-92 NSCLC): 675 nM; TGI (HOP-92 NSCLC): 22.5 µM; GI50 (SR leukemia): 6.87 µM; TGI (SR leukemia): 31.1 µM; GI50 (SNB-75 CNS): 1240 nM; TGI (SNB-75 CNS): 3.31 µM; GI50 (NCI-H460 lung): 2940 nM; TGI (NCI-H460 lung): 11.4 µM; GI50 (COLO 205 colon): 2440 nM; TGI (COLO 205 colon): 13.1 µM; GI50 (CCRF-CEM leukemia): 24.1 µM; TGI (CCRF-CEM leukemia): > 100 µM; GI50 (HT29 colon): 24.3 µM; TGI (HT29 colon): > 100 µM; GI50 (NCI-H522 lung): 27 µM; TGI (NCI-H522 lung): > 100 µM; GI50 (SNB-19 CNS): 12.8 µM; TGI (SNB-19 CNS): 43 µM; GI50 (HOP-62 NSCLC): 2510 nM; TGI (HOP-62 NSCLC): 13.9 µM; GI50 (NCI/ADR-RES ovarian): 3.38 µM; TGI (NCI/ADR-RES ovarian): 13.6 µM; GI50 (SF-295 CNS): 1610 nM; TGI (SF-295 CNS): 3.76 µM; GI50 (HCT-15 colon): 12.3 µM; TGI (HCT-15 colon): > 100 µM; GI50 (HS 578T breast): 1960 nM; TGI (HS 578T breast): 5.73 µM; GI50 (OVCAR-4 ovarian): 2470 nM; TGI (OVCAR-4 ovarian): 6.6 µM; GI50 (SK-MEL-28 melanoma): 5.54 µM; TGI (SK-MEL-28 melanoma): 24.4 µM; GI50 (CAKI-1 renal): 1980 nM; TGI (CAKI-1 renal): 10.7 µM; GI50 (M14 melanoma): 3.7 µM; TGI (M14 melanoma): 18.3 µM
